# Experimental data: publication PMC6100724, “Proteome‐wide analysis of phospho‐regulated PDZ domain interactions” (Molecular Systems Biology, 2018)
# Key:
# [1] = test system: DLG1 PDZ3; assay: Phosphomimetic ProP-PD selection with NGS; assay type: binding, human; conditions: mean of selections 1-3; bait DLG1 PDZ3
# Procedure, shortened: (§1)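 Targets coated overnight at 4°C, BSA-blocked; phage library (10^11 cfu) pre-cleared on GST 1 h, then bound to target 2 h at 8°C. Four washes, elution by log-phase E. coli, helper-phage amplification; four rounds total. Pre-phosphorylated wild-type library selections ran in HBS (50 mM HEPES pH 7.4, 150 mM NaCl).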
# [2] = biological target: T1, DLG1 PDZ2 (Homo sapiens, UniProt Q12959); assay: Phosphomimetic ProP-PD selection with NGS; assay type: binding; conditions: mean of selections 1-3, bait DLG1 PDZ2
# T1 construct: human DLG1 PDZ2 aa 311–407 in a modified pRSET vector 40; made in house; host or cells: E. coli BL21 Gold (DE3)
# Procedure, shortened: as §1
# [3] = test system: DLG1 PDZ1; assay: Phosphomimetic ProP-PD selection with NGS; assay type: binding, human; conditions: mean of selections 1-3, bait DLG1 PDZ1; for Mean fraction #NGS counts wt peptide / total counts selection: wild type peptide; for Mean fraction #NGS counts mimetic peptide / total count selection: phosphomimetic peptide
# Procedure, shortened: as §1
# [4] = test system: Scribble PDZ3; assay: Phosphomimetic ProP-PD selection with NGS; assay type: binding, human; conditions: mean over selections 1-3; bait Scribble PDZ3
# Procedure, shortened: as §1
# [5] = biological target: T2, Scribble PDZ1 (Homo sapiens, UniProt Q14160); assay: Phosphomimetic ProP-PD selection with NGS; assay type: binding; conditions: bait Scribble PDZ1; mean of selections 1-3
# T2 construct: human Scribble PDZ1 aa 719–829 in; made in house; host or cells: E. coli BL21 Gold (DE3)
# Procedure, shortened: as §1
# [6] = test system: Scribble PDZ2; assay: Phosphomimetic ProP-PD selection with NGS; assay type: binding, human; conditions: bait Scribble PDZ2; mean of selections 1 and 2 (selection 3 empty)
# Procedure, shortened: as §1
# [7] = biological target: T2, Scribble PDZ1; assay: Pre-phosphorylation ProP-PD: wild-type library treated with RPS6KA1 or not, selection with NGS; assay type: binding; conditions: mean of the two selections, bait Scribble PDZ1; for Phosphorylated selection Mean fraction: Pre-phosphorylation with RPS6KA1; for Unphosphorylated selection Mean fraction: Without Kinase
# Description: For pre‐phosphorylation of the wild‐type ProP‐PD library, we obtained activated RPS6KA1 (Thermo Fisher). The time and amount of kinase required to phosphorylate the ProP‐PD library were tested in a phosphorylation assay.
# Phage selections were carried out for four rounds following a protocol by Huang and Sidhu (Huang & Sidhu, 2011) with minor modifications. Non‐specific binding phage was removed by pre‐selections against immobilized GST throughout the selection. The selections against the (pre‐)phosphorylated wild‐type library were performed in 50 mM HEPES (pH 7.4) and 150 mM NaCl (HBS) following the same procedure after pre‐phosphorylation of the library.
# • Immobilize proteins (15 μg in 100 μl PBS) in a 96‐well MaxiSorp microtiter plate (NUNC) overnight at 4°C. • Start a 2YT culture of E. coli Omnimax supplemented with 100 μg/ml tetracycline to retain the F pilus epitope. • Block the wells with 200 μl 0.5% BSA in PBS for 2 h at 4°C. • Precipitate naïve phage library (10^11 cfu per selection) or amplified phage pool from the previous round of selection by adding one‐fifth the volume of PEG/NaCl. • Incubate on ice for 10 min, and pellet precipitated phage by centrifugation at 5,300 g for 15 min. Resuspend the phage pellet in 100 μl PBS per selection. • Add 100 μl of phage solution to the GST‐coated pre‐selection wells and incubate for 1 h. • Transfer the phage solution to the immobilized target proteins and allow it to bind for 2 h at 8°C. • Wash the plate four times with 200 μl cold wash buffer (PBS, 0.05% Tween‐20). • Elute bound phage by incubation with 100 μl log phase (0.6–0.8 OD600) E. coli Omnimax for 30 min at 37°C with shaking (200 RPM). • Add 10^12 cfu/ml M13K07 helper phage for hyperinfection of the bacteria and incubate as above for 45 min. • Transfer the bacterial culture to 10 ml 2YT supplemented with 50 μg/ml carbenicillin, 25 μg/ml kanamycin, and 300 μM IPTG and incubate overnight at 37°C while shaking. • Perform phage pool ELISA to monitor the progress of the selection as described previously (Huang & Sidhu, 2011).
# • Precipitate the naive wild‐type phage library (as described above, 1.8 × 10^10 cfu phage per selection). • Resuspend the precipitated phage pellets in 100 μl Kinase buffer per selection and add ATP (100 μM final concentration) and RPS6KA1 (500 ng/ml) to the phage solution. In parallel, prepare a negative control where only ATP is added to the phage pool. • Incubate the phosphorylation reaction for 2 h at room temperature. Stop the reaction through PEG/NaCl precipitation (as described above). • Resuspend the phage pool in 100 μl HBS.
# During the 4 days of pre‐phosphorylation ProP‐PD selections, the input phage library of each day of selection was subjected to phosphorylation prior to phage selection.
# The naïve library and the enriched phage pools of the third day of selection were amplified and barcoded by PCR and analyzed by NGS as described elsewhere (McLaughlin & Sidhu, 2013; Ivarsson et al, 2014). The reads were demultiplexed using the barcode sequences and filtered by discarding sequences with a Phred quality score under 30. Sequences were mapped to the original library using Bowtie (Langmead et al, 2009) with two mismatches between reads and library sequence. Nucleotide mutations leading to amino acid substitutions were subsequently removed. Cutoff values of NGS counts were assigned for each pool. PWMs were generated based on the remaining peptides (aligned on the C‐termini) using WebLogo (Crooks et al, 2004).
# T1 sequence (Q12959 311-407): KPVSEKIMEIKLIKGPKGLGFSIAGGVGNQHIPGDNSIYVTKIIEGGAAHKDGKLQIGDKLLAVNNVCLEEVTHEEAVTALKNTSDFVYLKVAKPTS
# T2 sequence (Q14160 719-829): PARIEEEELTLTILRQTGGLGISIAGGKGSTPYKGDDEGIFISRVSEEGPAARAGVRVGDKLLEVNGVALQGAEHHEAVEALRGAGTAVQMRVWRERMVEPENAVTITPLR
sequence,measurement,setting,value
YEPSMEMSV,Mean fraction #NGS counts mimetic peptide / total count selection,[1],0.001067
TNSSSYEHI,Mean fraction #NGS counts mimetic peptide / total count selection,[1],0
RQTEYQGVL,Mean fraction #NGS counts mimetic peptide / total count selection,[1],3.59e-6
same,Mean fraction #NGS counts mimetic peptide / total count selection,[2],0
KGRAKGTPV,Mean fraction #NGS counts wt peptide / total counts selection,[1],0.0008774
LPKIKETTV,Mean fraction #NGS counts wt peptide / total counts selection,[3],0.004479
same,Mean fraction #NGS counts wt peptide / total counts selection,[1],0.008422
same,Mean fraction #NGS counts wt peptide / total counts selection,[4],0.004275
same,Mean fraction #NGS counts wt peptide / total counts selection,[2],0.04339
same,Mean fraction #NGS counts wt peptide / total counts selection,[5],0.0005451
VWLRKETRV,Mean fraction #NGS counts wt peptide / total counts selection,[6],0.008925
same,Mean fraction #NGS counts wt peptide / total counts selection,[3],0.4163
same,Mean fraction #NGS counts wt peptide / total counts selection,[1],0.8949
same,Mean fraction #NGS counts wt peptide / total counts selection,[4],0.009414
same,Mean fraction #NGS counts wt peptide / total counts selection,[2],0.5055
same,Mean fraction #NGS counts wt peptide / total counts selection,[5],0.0001002
RPYRREEEI,Mean fraction #NGS counts mimetic peptide / total count selection,[1],0
same,Mean fraction #NGS counts mimetic peptide / total count selection,[4],0
TIKLKTSFF,Mean fraction #NGS counts wt peptide / total counts selection,[3],0
same,Mean fraction #NGS counts wt peptide / total counts selection,[1],3.092e-5
same,Mean fraction #NGS counts wt peptide / total counts selection,[4],4.802e-5
same,Mean fraction #NGS counts wt peptide / total counts selection,[2]; wild type peptide,4.36e-5
RATEPGSGL,Mean fraction #NGS counts mimetic peptide / total count selection,[1],0
SRDRKEESI,Mean fraction #NGS counts mimetic peptide / total count selection,[1],5.904e-6
same,Mean fraction #NGS counts mimetic peptide / total count selection,[4],2.019e-6
same,Mean fraction #NGS counts mimetic peptide / total count selection,[2],0
LPKIKEETV,Mean fraction #NGS counts mimetic peptide / total count selection,[3],3.0718e-6
same,Mean fraction #NGS counts mimetic peptide / total count selection,[1],0
same,Mean fraction #NGS counts mimetic peptide / total count selection,[4],0
same,Mean fraction #NGS counts mimetic peptide / total count selection,[2],0
same,Mean fraction #NGS counts mimetic peptide / total count selection,[5],0
PANRRETPV,Mean fraction #NGS counts mimetic peptide / total count selection,[3],3.546e-5
same,Mean fraction #NGS counts mimetic peptide / total count selection,[1],0.0003587
SRDRKETSI,Mean fraction #NGS counts wt peptide / total counts selection,[1],0.002721
same,Mean fraction #NGS counts wt peptide / total counts selection,[4],0.00255
same,Mean fraction #NGS counts wt peptide / total counts selection,[2],0.0004401
PANRRTTPV,Mean fraction #NGS counts wt peptide / total counts selection,[3],0
same,Mean fraction #NGS counts wt peptide / total counts selection,[1],0
GGKRKEELV,Mean fraction #NGS counts mimetic peptide / total count selection,[3],3.0718e-6
same,Mean fraction #NGS counts mimetic peptide / total count selection,[1],0
same,Mean fraction #NGS counts mimetic peptide / total count selection,[4],0
same,Mean fraction #NGS counts mimetic peptide / total count selection,[2],0.0001104
TNSSSYSHI,Mean fraction #NGS counts wt peptide / total counts selection,[1],0.001855
TMFLRETSL [GUCY1A2],Phosphorylated selection Mean fraction,[7],0.5527
same,Unphosphorylated selection Mean fraction,[7],0.1808
HSIKQETAV,Mean fraction #NGS counts mimetic peptide / total count selection,[6],0.001519
same,Mean fraction #NGS counts mimetic peptide / total count selection,[3],0.0009534
same,Mean fraction #NGS counts mimetic peptide / total count selection,[1],0.0006363
same,Mean fraction #NGS counts mimetic peptide / total count selection,[4],0.0001468
same,Mean fraction #NGS counts mimetic peptide / total count selection,[2],0.01768
same,Mean fraction #NGS counts mimetic peptide / total count selection,[5],6.299e-5
YSPSMTMSV,Mean fraction #NGS counts wt peptide / total counts selection,[1],7.133e-5
KSEPFLTWL [WWTR1],Phosphorylated selection Mean fraction,[7],1.399e-5
same,Unphosphorylated selection Mean fraction,[7],1.381e-5
SIDLWETAL [SLC15A5],Phosphorylated selection Mean fraction,[7],0.0004582
same,Unphosphorylated selection Mean fraction,[7],1.656e-5
RSRSISTDV [FAM163B],Phosphorylated selection Mean fraction,[7],0
same,Unphosphorylated selection Mean fraction,[7],2.348e-5
SARLWETSI [ADAM22],Phosphorylated selection Mean fraction,[7],0.05157
same,Unphosphorylated selection Mean fraction,[7],0.03077
HSIKQSTAV,Mean fraction #NGS counts wt peptide / total counts selection,[6],0.0003798
same,Mean fraction #NGS counts wt peptide / total counts selection,[3],0.0004538
same,Mean fraction #NGS counts wt peptide / total counts selection,[1],0
same,Mean fraction #NGS counts wt peptide / total counts selection,[4],5.205e-5
same,Mean fraction #NGS counts mimetic peptide / total count selection,[2],0
same,Mean fraction #NGS counts wt peptide / total counts selection,[2]; wild type peptide,5.408e-5
same,Mean fraction #NGS counts wt peptide / total counts selection,[5],4.38e-5
SRDRKETSI [RALBP1],Phosphorylated selection Mean fraction,[7],0
same,Unphosphorylated selection Mean fraction,[7],1.381e-5
RATSPGSGL,Mean fraction #NGS counts wt peptide / total counts selection,[1],0.001731
EIKLKTSFF,Mean fraction #NGS counts mimetic peptide / total count selection,[3],0.06227
same,Mean fraction #NGS counts mimetic peptide / total count selection,[1],0.01375
same,Mean fraction #NGS counts mimetic peptide / total count selection,[4],6.807e-5
same,Mean fraction #NGS counts mimetic peptide / total count selection,[2]; phosphomimetic peptide,0.002811
LPKIKETTV [FRMPD4],Phosphorylated selection Mean fraction,[7],0.001062
same,Unphosphorylated selection Mean fraction,[7],0.0007483
RPYRRESEI,Mean fraction #NGS counts wt peptide / total counts selection,[1],2.154e-5
same,Mean fraction #NGS counts wt peptide / total counts selection,[4],9.302e-5
same,Mean fraction #NGS counts mimetic peptide / total count selection,[2],0
same,Mean fraction #NGS counts wt peptide / total counts selection,[2],3.461e-5
RQTSYQGVL,Mean fraction #NGS counts wt peptide / total counts selection,[1],0.008629
same,Mean fraction #NGS counts wt peptide / total counts selection,[2],0.001671
TKGISITSI [GNRHR2],Phosphorylated selection Mean fraction,[7],3.213e-5
same,Unphosphorylated selection Mean fraction,[7],3.175e-5
KGRAKGEPV,Mean fraction #NGS counts mimetic peptide / total count selection,[1],0
GGKRKETLV,Mean fraction #NGS counts wt peptide / total counts selection,[3],0.3267
same,Mean fraction #NGS counts wt peptide / total counts selection,[1],0.06478
same,Mean fraction #NGS counts wt peptide / total counts selection,[4],6.172e-5
same,Mean fraction #NGS counts wt peptide / total counts selection,[2],0.3203
